In ChEMBL document CHEMBL1201862, “PubChem BioAssay data set” (2004):
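Interpolation was linear, between the two tested concentrations surrounding the appropriate level; five concentrations were tested over 48 hours in 96-well plates. GI50 = concentration required for 50% inhibition of growth.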 Active and inactive are the calls of the source. No stated cut-off is given here; in the data, active = GI50 up to about 1.1 µM and inactive = higher.

How the values were obtained:
Experiment in all cases: DTP human tumour cell line panel, 48 h
Hs-578T = test system: Hs-578T
NCI/ADR-RES = test system: NCI/ADR-RES
SK-MEL-2 = test system: SK-MEL-2
ACHN = test system: ACHN
MOLT-4 = test system: MOLT-4
UO-31 = test system: UO-31
A498 = test system: A498
K562 = test system: K562
SR = test system: SR
SN12C = test system: SN12C
OVCAR-4 = test system: OVCAR-4
RXF 393 = test system: RXF 393
SNB-19 = test system: SNB-19
HCT-15 = test system: HCT-15
786-0 = test system: 786-0
HL-60 = test system: HL-60
CAKI-1 = test system: CAKI-1
SF-295 = test system: SF-295
EKVX = test system: EKVX
SK-MEL-28 = test system: SK-MEL-28
OVCAR-8 = test system: OVCAR-8
HOP-92 = test system: HOP-92
MDA-N = test system: MDA-N
Malme-3M = test system: Malme-3M
HT-29 = test system: HT-29
SNB-75 = test system: SNB-75
IGROV-1 = test system: IGROV-1
SK-OV-3 = test system: SK-OV-3
CCRF-CEM = test system: CCRF-CEM
OVCAR-5 = test system: OVCAR-5
UACC-257 = test system: UACC-257
M14 = test system: M14
MDA-MB-435 = test system: MDA-MB-435
SF-268 = test system: SF-268
U-251 = test system: U-251
SW-620 = test system: SW-620
NCI-H522 = test system: NCI-H522
DU-145 = test system: DU-145
SK-MEL-5 = test system: SK-MEL-5
COLO 205 = test system: COLO 205
A549 = test system: A549
SF-539 = test system: SF-539
MDA-MB-231 = test system: MDA-MB-231
RPMI-8226 = test system: RPMI-8226
HCT-116 = test system: HCT-116
KM12 = test system: KM12
T47D = test system: T47D
UACC-62 = test system: UACC-62
NCI-H23 = test system: NCI-H23
NCI-H460 = test system: NCI-H460
BT-549 = test system: BT-549
PC-3 = test system: PC-3
TK-10 = test system: TK-10
HCC 2998 = test system: HCC 2998
NCI-H226 = test system: NCI-H226
MCF7 = test system: MCF7
HOP-62 = test system: HOP-62
LOX IMVI = test system: LOX IMVI
OVCAR-3 = test system: OVCAR-3

Measured: GI50

CC(=O)Nc1ccc2cc(C)c(O)nc2n1
> 100 µM: HCT-15
inactive: Hs-578T 85.7 µM | NCI/ADR-RES 8.09 µM | SK-MEL-2 > 100 µM | ACHN > 100 µM | MOLT-4 > 100 µM | UO-31 > 100 µM | A498 > 100 µM | K562 > 100 µM | SR > 100 µM | SN12C > 100 µM | OVCAR-4 > 100 µM | RXF 393 25.9 µM | SNB-19 > 100 µM | 786-0 52.1 µM | HL-60 > 100 µM | CAKI-1 > 100 µM | SF-295 > 100 µM | EKVX > 100 µM | SK-MEL-28 > 100 µM | OVCAR-8 > 100 µM | HOP-92 54.2 µM | MDA-N > 100 µM | Malme-3M > 100 µM | HT-29 > 100 µM | SNB-75 43.7 µM | IGROV-1 > 100 µM | SK-OV-3 > 100 µM | CCRF-CEM > 100 µM | OVCAR-5 > 100 µM | UACC-257 > 100 µM | M14 > 100 µM | MDA-MB-435 > 100 µM | SF-268 > 100 µM | U-251 > 100 µM | SW-620 > 100 µM | NCI-H522 > 100 µM | DU-145 > 100 µM | SK-MEL-5 > 100 µM | COLO 205 > 100 µM | A549 > 100 µM | SF-539 > 100 µM | MDA-MB-231 75.7 µM | RPMI-8226 > 100 µM | HCT-116 > 100 µM | KM12 > 100 µM | T47D > 100 µM | UACC-62 > 100 µM | NCI-H23 > 100 µM | NCI-H460 > 100 µM | BT-549 > 100 µM | PC-3 > 100 µM | TK-10 > 100 µM

CCc1cc(=O)n(/C(C)=C/c2ccccc2)n1C
inactive: Hs-578T > 100 µM | NCI/ADR-RES > 100 µM | HCC 2998 > 100 µM | SK-MEL-2 > 100 µM | ACHN > 100 µM | MOLT-4 > 100 µM | NCI-H226 > 100 µM | MCF7 > 100 µM | UO-31 > 100 µM | K562 > 100 µM | SN12C > 100 µM | OVCAR-4 > 100 µM | RXF 393 > 100 µM | SNB-19 > 100 µM | CAKI-1 > 100 µM | SF-295 > 100 µM | EKVX > 100 µM | SK-MEL-28 > 100 µM | OVCAR-8 > 100 µM | HOP-92 > 100 µM | MDA-N > 100 µM | HT-29 > 100 µM | SNB-75 > 100 µM | IGROV-1 > 100 µM | HOP-62 > 100 µM | SK-OV-3 > 100 µM | CCRF-CEM > 100 µM | OVCAR-5 > 100 µM | UACC-257 > 100 µM | M14 > 100 µM | MDA-MB-435 > 100 µM | SF-268 > 100 µM | U-251 > 100 µM | SW-620 > 100 µM | LOX IMVI > 100 µM | OVCAR-3 > 100 µM | DU-145 > 100 µM | SK-MEL-5 > 100 µM | COLO 205 > 100 µM | A549 > 100 µM | SF-539 > 100 µM | MDA-MB-231 > 100 µM | RPMI-8226 > 100 µM | HCT-116 > 100 µM | KM12 > 100 µM | T47D > 100 µM | UACC-62 > 100 µM | NCI-H23 > 100 µM | NCI-H460 > 100 µM | BT-549 > 100 µM | PC-3 > 100 µM | TK-10 > 100 µM
